From patent US5985273A, “Biological control of insects” (priority 1994, dated 1999)
In brackets after ≈: the same amount, converted by molar mass. Starred links: 1 amine or outer side, 2 acyl side, 3 side chain; linkers in the order of their positions; H or OH if unused. Non-standard residues stand in square brackets, D forms with d. Residues, ends and D or L forms follow the SMILES beside them. *: point of attachment. Sta = CC(C)C[C@H](N)[C@@H](O)CC(=O)O; Isovaleryl = CC(C)CC(=O)*; Nle = CCCC[C@H](N)C(=O)O; CO = O=C([*:1])[*:2]

Tests used:
[1] = tested on: Colorado potato beetle larvae; settings: cited from earlier work
Lucilia cuprina larvae = assay: Growth and survival of first instar sheep blowfly larvae on culture medium with inhibitor; assay type: in vivo; settings: for Effect on larval growth, summary in words: Example 1, Table 1.2
Teleogryllus commodus = assay: Mortality of black field cricket nymphs on treated cabbage leaf disks; assay type: in vivo; settings: after 7 days
Description: (i) Stock solutions of inhibitors and control solutions were prepared as aqueous solutions or suspensions as outlined in Table 6.1.
(ii) Mortality was assessed by commencing the study with 1st instar nymphs.
(iii) Cabbage leaf disks (5×8 mm diameter disks/treatment) were smeared with 100 μl of inhibitor or control stock solutions and allowed to dry. Disks were placed singly in 40 mm petri dishes, together with a moist cotton wool pas as water supply and a piece of fluted plastic for shelter.
(iv) Ten nymphs were placed on each disc and the dishes incubated at 25° C.
(v) Mortality was assessed daily and any dead individuals removed.

O. surinamensis larvae = assay: Weight reduction of Oryzaephylus surinamensis larvae in treated flour; assay type: in vivo
Description: Insects were cultured in cleaned, ground and sieved wholemeal flour made from organic wheat. Inhibitors from bottles of pre-weighed material were dry-mixed with the flour and residual inhibitor rinsed from bottles with a small volume of water. Rinse water was added to the flour and the mixture re-ground. The impregnated flour was transferred to a 20 mL vial and mixed thoroughly by shaking and inverting.
Adults of T. castaneum were allowed to oviposit on flour, eggs were sifted from the flour and transferred one by one with a single hair to microwell tubes containing a small amount of flour. Each level of treatment was performed in triplicated using 32 wells/replicate. Assays were performed in triplicated. Cultures were incubated at 30° C. and 55% R H.
The bioassay for this insect was outlined for T. castaneum, except incubations were conducted at 32.5° C. and 70% R H. After 8 days the insects were sieved from the flour and weighed.

[2] = tested on: Heliothis punctigens larvae; assay: Growth and survival of cotton budworm larvae fed an artificial diet; assay type: in vivo; settings: for % Alive / Average Laval Weight: 10 days; for % Alive: control 70.0; for Average Laval Weight: control 165.4
Description: 1. The Haricot beans were cooked in a microwave for 40 minutes. 2. Agar was added to the hot water and stirred on a hot plate until almost boiling. 3. The haricot beans, agar mix, yeast and wheat germ was blended in an electric mixer for 3 minutes. 4. When the temperature has dropped to 60°C., the acids were added and mixed with the media. […] Inhibitor solutions or an equal volume of water were placed into sterilized glass tubes at designated concentrations. The artificial media was added to each tube (1.5 ml) using a sterile 10 ml syringe. First instar Heliothis punctigens larvae (1 larvae per tube) were added to the glass tubes and the tubes were capped. The tubes were incubated for 10 days at 25° C. The larvae were killed by placing the glass tubes at -70° C. for 24 hours, and then individually weighed. Percentage inhibition was calculated by comparison to control larvae.

Ctenocephalides felis = assay: Development of cat flea eggs in dried blood diets; assay type: in vivo; settings: Day 16
Description: Blood was collected from the jugular vein of a five year old merino sheep that had not been treated with an ectoparasitic agent for 18 months. The blood was collected into a 100 ml plastic bottle containing 0.8 ml of heparin and was maintained at 4° C. Inhibitors were pre-weighed into sterile 5 ml plastic vials and 4.5 ml of blood added. The samples were mixed, placed at -70° C. for 24 hours, then freeze-dried. The freeze-dried samples were sieved through a stainless steel 63 micron sieve, and placed into sterile 5 ml plastic vials (0.15 g/per tube). Four flea eggs were placed into each vial, and a sheet of tissue paper fastened by an elastic band was fitted to the top of each vial. The vials were incubated at 25° C. and 70-80% R H for 6 days. Vermiculite was then added to each vial to provide a supporting medium for the fleas to pupate and the tubes incubated at 25° C. and 70-80% R H, for a further 10 days. Ten control vials and three vials of each treatment were tested.
At the conclusion of the incubation period the vials were placed at -20° C. for 24 hours to kill the fleas. The number of eggs hatched and the life-cycle state was recorded.

[3] = tested on: Bovicola ovis (Hartley strain); settings: cited from earlier work
[4] = 192 h, 2.5 mM, 8 days, relative to untreated larvae, read-out: Percentage Growth Inhibition
[5] = 192 h, 5 mM, 8 days, relative to untreated larvae, read-out: Percentage Growth Inhibition
[6] = 192 h, 10 mM, 8 days, relative to untreated larvae, read-out: Percentage Growth Inhibition
[7] = first instar larvae, tested at 1, 2, 5, 10 mM
[8] = Lucilia cuprina, first instar larvae, 2 mM
[9] = Heliothis, 240 h, read-out: % Growth Inhibition

Compound: CC(C)C[C@H](NC(=O)[C@H]1O[C@@H]1C(=O)O)C(=O)NCCCCN=C(N)N (relative stereo) [E64, L-trans-epoxy-succinyl-leucylamido-(4-guanidino-butane)]
- Plateau in mortality ([1]; 1000 μg/ml application level): 74-85%
- Threshold level for larval growth reduction ([1]; fed on potato leaves): 50 µg/mL
- Effect on larval growth, summary in words (Lucilia cuprina larvae): ineffective
- Growth Inhibition (Lucilia cuprina larvae; first instar larvae, tested at 1, 2, 5 mM): No inhibition detected

Compound: CC(C)[C@H](NC(=O)[C@H](CCCNC(=N)N)NC(=O)N[C@@H](Cc1ccccc1)C(=O)O)C(=O)N[C@H](C=O)CCCNC(=N)N [Antipain] ({Phe-CO}-Arg-Val-Arg-aldehyde)
- Mortality (class) (Teleogryllus commodus; 2.5-10 mM): None (none/low, 10-20% mortality)
- inhibition at 2500 µM (O. surinamensis larvae; [4]): -10%
- inhibition at 5000 µM (O. surinamensis larvae; [5]): -2%
- inhibition at 10000 µM (O. surinamensis larvae; [6]): -2%
- inhibition at 2500 µM (Lucilia cuprina larvae; Lucilia cuprina, first instar larvae, 2.5 mM, unit inferred): 45.5%
- inhibition at 5000 µM (Lucilia cuprina larvae; Lucilia cuprina, first instar larvae, 5 mM, unit inferred): 63.2%

Compound: CC[C@H](C)[C@H](N)C(=O)N1CCC[C@H]1C(=O)N[C@H](C(=O)O)[C@@H](C)CC [Diprotin, H-Ile-Pro-Ile-OH]
- Effect on larval growth, summary in words (Lucilia cuprina larvae): ineffective
- Growth Inhibition (Lucilia cuprina larvae; [7]): No inhibition detected

Compound: CC(C)C[C@H](NC(=O)[C@@H](O)[C@H](N)Cc1ccccc1)C(=O)O [Bestatin]
- inhibition at 1250 µM (O. surinamensis larvae; 192 h, 1.25 mM, 8 days, relative to untreated larvae, read-out: Percentage Growth Inhibition): -5%
- inhibition at 2500 µM (O. surinamensis larvae; [4]): 2%
- inhibition at 5000 µM (O. surinamensis larvae; [5]): -4%
- Growth inhibition, summary in words (O. surinamensis larvae; text summary of Table 9.1): ineffective
- Effect on larval growth, summary in words (Lucilia cuprina larvae): effective growth inhibitors
- inhibition at 5000 µM (Lucilia cuprina larvae; Lucilia cuprina, first instar larvae, 5 mM): 63%

Compound: Casein
- Percentage Growth Inhibition (O. surinamensis larvae; 10 mg/ml, 8 days): -5%
- Percentage Growth Inhibition (O. surinamensis larvae; 20 mg/ml, 8 days): 10%
- Percentage Growth Inhibition (O. surinamensis larvae; 40 mg/ml, 8 days): -2%

Compound: tosyl-L-phenylalanine chloromethyl ketone [TPCK]
- Growth Inhibition (Lucilia cuprina larvae; [7]): No inhibition detected

Compound: CC(C)CC(N)CS [L-leucinethiol, 2-amino-4-methyl-1-pentanethiol]
- Effect on larval growth, summary in words (Lucilia cuprina larvae): effective growth inhibitors
- inhibition at 1000 µM (Lucilia cuprina larvae; Lucilia cuprina, Table 2.2, 1.00 mM): 21.4%
- inhibition at 2000 µM (Lucilia cuprina larvae; Lucilia cuprina, Table 2.2, 2.00 mM): 73.1%
- inhibition at 2000 µM (Lucilia cuprina larvae; [8]): 47%
- Average Larval Weight (Lucilia cuprina larvae; Table 2.2, 1.00 mM, control 10.26): 8.06 10^-4 g
- Average Larval Weight (Lucilia cuprina larvae; Table 2.2, 2.00 mM, control 10.26): 2.76 10^-4 g
- % Growth Incubation (Lucilia cuprina larvae; Table 2.3, 1.0 mM): 67.2%
- Average Larval Weight (Lucilia cuprina larvae; Table 2.3, 1.0 mM, control 9.08): 2.98 10^-4 g
- % Growth Incubation (Lucilia cuprina larvae; Table 2.3, 2.0 mM): 86.6%
- Average Larval Weight (Lucilia cuprina larvae; Table 2.3, 2.0 mM, control 9.08): 1.22 10^-4 g
- Larval survival (Lucilia cuprina larvae; first instar larvae, 5 mM): All killed

Compound: tosyl-L-lysine chloromethyl ketone [TLCK]
- Effect on larval growth, summary in words (Lucilia cuprina larvae): killing the larvae
- Larval survival (Lucilia cuprina larvae; first instar larvae, 5 mM): All killed
- Larval survival (Lucilia cuprina larvae; first instar larvae, 10 mM): All killed

Compound: CC(C)C[C@@H](N)[C@H](O)C(=O)N[C@H](C(=O)N[C@H](C(=O)N[C@@H](CC(=O)O)C(=O)O)C(C)C)C(C)C [Amastatin, ((2S,3R)-3-amino-2-hydroxy-5-methyl-hexanoyl)-Val-Val-Asp-OH]
- Effect on larval growth, summary in words (Lucilia cuprina larvae): effective growth inhibitors
- inhibition at 2000 µM (Lucilia cuprina larvae; [8]): 60%

Compound: CC(=O)N[C@@H](CC(C)C)C(=O)N[C@@H](CC(C)C)C(=O)N[C@H](C=O)CCCNC(=N)N [Leupeptin, Ac-Leu-Leu-Arginyl.1/2H2 SO4 H2 O]
- % Alive ([2]; 2.5 mM): 16.6%
- Average Laval Weight ([2]; 2.5 mM): 16.6 mg
- % Alive ([2]; 5.0 mM): 33.3%
- Average Laval Weight ([2]; 5.0 mM): 17.0 mg
- inhibition at 2500 µM [2, 9]: 90%
- inhibition at 5000 µM [2, 9]: 89.7%
- Percentage of Fleas Progressing Through to Pupation (Ctenocephalides felis; 1.70 mg in 4.5 ml of blood): 0%
- Percentage of Fleas Progressing Through to Pupation (Ctenocephalides felis; 3.40 mg in 4.5 ml of blood): 0%
- Effect on larval growth, summary in words (Lucilia cuprina larvae): intermediate inhibition
- inhibition at 2000 µM (Lucilia cuprina larvae; [8]): 71%
- inhibition at 10000 µM (Lucilia cuprina larvae; Lucilia cuprina, first instar larvae, 10 mM): 80%

Compound: Cl.NCCc1ccc(S(=O)(=O)F)cc1 [PEFABLOC, 4-(2-aminoethyl)-benzenesulfonylfluoride hydrochloride]
- Mortality (class) (Teleogryllus commodus; 2.5-10 mM): Medium (medium 21-40%)
- Percentage Growth Inhibition (O. surinamensis larvae; 2.5 mM, 8 days, relative to untreated larvae): 49%
- Percentage Growth Inhibition (O. surinamensis larvae; 5 mM, 8 days, relative to untreated larvae): 61%
- Percentage Growth Inhibition (O. surinamensis larvae; 10 mM, 8 days, relative to untreated larvae): 79%
- Percentage of Fleas Progressing Through to Pupation (Ctenocephalides felis; 1.10 mg in 4.5 ml of blood): 0%
- Percentage of Fleas Progressing Through to Pupation (Ctenocephalides felis; 2.20 mg in 4.5 ml of blood): 0%
- Growth Inhibition (Lucilia cuprina larvae; first instar larvae, 10 mM): 72%
- Growth Inhibition (Lucilia cuprina larvae; first instar larvae, 50 mM): 92%

Compound: CC(C)C[C@H](N)[C@](O)(Cc1c[nH]cn1)C(=O)O [Leuhistin, (2R,3S)-3-amino-2-hydroxy-2-(lII-imidazole-4-methyl)-5-methylhexanoic acid]
- Effect on larval growth, summary in words (Lucilia cuprina larvae): effective growth inhibitors
- Growth Inhibition (Lucilia cuprina larvae; first instar larvae, 5 mM): 65%

Compound: CC(C)CC(=O)N[C@H](C(=O)N[C@H](C(=O)N[C@@H](CC(C)C)[C@@H](O)CC(=O)N[C@@H](C)C(=O)N[C@@H](CC(C)C)[C@@H](O)CC(=O)O)C(C)C)C(C)C [Pepstatin] (Isovaleryl-VV[Sta]A[Sta]-OH)
- Growth retardation ([1]; fed on potato leaves): only a small response
- Effect on larval growth, summary in words (Lucilia cuprina larvae): ineffectiveness
- Growth Inhibition (Lucilia cuprina larvae; first instar larvae, tested at 1, 2, 10 mM): No inhibition detected

Compound: O=BOB(O)OB(O)OB=O [Borax]
- Mortality (Teleogryllus commodus; 5-20 mM): 93%
- Mortality (class) (Teleogryllus commodus; 5-20 mM): High (high 41-100%)
- inhibition at 5000 µM (O. surinamensis larvae; [5]): -5%
- inhibition at 10000 µM (O. surinamensis larvae; [6]): 39%
- inhibition at 20000 µM (O. surinamensis larvae; 192 h, 20 mM, 8 days, relative to untreated larvae, read-out: Percentage Growth Inhibition): 68%

Compound: CCOP(=S)(OCC)Oc1cc(C)nc(C(C)C)n1 [Diatinon]
- LC50 ([3]; Hartley strain lice): 5.31 µg/mL (≈ 17.4 µM)
- LC95 ([3]; Hartley strain lice): 19.7 µg/mL (≈ 64.7 µM)
- Resistance Factor ([3]; Hartley strain, (Singapore)): 1.4

Compound: CC1(C)C(C=C(Cl)Cl)C1C(=O)OC(C#N)c1cccc(Oc2ccccc2)c1 (stereo not drawn) [Cypermethrin]
- LC95 ([3]; Hartley strain lice): 475 µg/mL (≈ 1140 µM)

Compound: CCCC[C@@H](C=O)NC(=O)[C@H](CC(C)C)NC(=O)[C@H](CC(C)C)NC(C)=O [Calpain inhibitor I, N-Acetyl-Leu-Ley-norleucinal] (Ac-Leu-Leu-[Nle]-aldehyde)
- Growth Inhibition (Lucilia cuprina larvae; first instar larvae, 2 mM): 71%
